Measurements from US20180244611A1, “Modulators of the Cystic Fibrosis Transmembrane Conductance Regulator Protein and Methods of Use” (AbbVie S.à.r.l., priority 2017, published 2018).

How the values were obtained:
[1] = biological target: T1, F508delCFTR (Homo sapiens, UniProt P13569, DEL508-508); test: Cell Surface Expression-Horse Radish Peroxidase (CSE-HRP) assay, test compound with co-corrector; format: cell-based; details: for Maximum % activity (with co-corrector): maximum at any tested concentration;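 for Maximum % activity (with co-corrector): percent of 2 µM positive control corrector over DMSO; co-corrector is that same compound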
T1 construct: expressed in transfected cells; host or cells: CFBE41o- human lung-derived epithelial cells (CFBE41o-F508delCFTR-HRP), doxycycline-inducible
Summary of the method: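 Surface-expression read-out: luminol luminescence from an HRP tag in the fourth exofacial loop of F508delCFTR, in doxycycline-induced (0.5 μg/mL, 72 h) CFBE41o- cells. Compound plus 2 μM co-corrector added for 18-24 h at 33° C., 8-point 3-fold series up to 20 μM. EC50 from a sigmoidal fit with variable Hill slope, normalised to positive control, triplicate plates.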

[2] = biological target: T1, F508delCFTR; test: Cell Surface Expression-Horse Radish Peroxidase (CSE-HRP) assay, test compound without co-corrector; format: cell-based; details: for EC50: test compound without co-corrector; for Emax: maximum at any tested concentration, without co-corrector;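 for Emax: percent of on-plate 2 µM positive control corrector response over DMSO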
Summary of the method: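 Compound without co-corrector was tested at eight 3-fold concentrations, top 20 μM, for 18-24 h at 33° C on doxycycline-induced (0.5 μg/mL, 72 h) CFBE41o- F508delCFTR-HRP cells. After DPBS washes, luminol luminescence gave % activity relative to on-plate positive control minus DMSO; EC50 came from triplicate-plate sigmoidal fitting.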

[3] = CSE-HRP assay, test compound with 2 μM co-corrector
[4] = normalized to on-plate positive control, with 2 μM co-corrector
[5] = normalized to on-plate positive control
[6] = normalized to positive control, with 2 μM co-corrector

T1 sequence (P13569 with tags, fused parts or gaps DEL508-508): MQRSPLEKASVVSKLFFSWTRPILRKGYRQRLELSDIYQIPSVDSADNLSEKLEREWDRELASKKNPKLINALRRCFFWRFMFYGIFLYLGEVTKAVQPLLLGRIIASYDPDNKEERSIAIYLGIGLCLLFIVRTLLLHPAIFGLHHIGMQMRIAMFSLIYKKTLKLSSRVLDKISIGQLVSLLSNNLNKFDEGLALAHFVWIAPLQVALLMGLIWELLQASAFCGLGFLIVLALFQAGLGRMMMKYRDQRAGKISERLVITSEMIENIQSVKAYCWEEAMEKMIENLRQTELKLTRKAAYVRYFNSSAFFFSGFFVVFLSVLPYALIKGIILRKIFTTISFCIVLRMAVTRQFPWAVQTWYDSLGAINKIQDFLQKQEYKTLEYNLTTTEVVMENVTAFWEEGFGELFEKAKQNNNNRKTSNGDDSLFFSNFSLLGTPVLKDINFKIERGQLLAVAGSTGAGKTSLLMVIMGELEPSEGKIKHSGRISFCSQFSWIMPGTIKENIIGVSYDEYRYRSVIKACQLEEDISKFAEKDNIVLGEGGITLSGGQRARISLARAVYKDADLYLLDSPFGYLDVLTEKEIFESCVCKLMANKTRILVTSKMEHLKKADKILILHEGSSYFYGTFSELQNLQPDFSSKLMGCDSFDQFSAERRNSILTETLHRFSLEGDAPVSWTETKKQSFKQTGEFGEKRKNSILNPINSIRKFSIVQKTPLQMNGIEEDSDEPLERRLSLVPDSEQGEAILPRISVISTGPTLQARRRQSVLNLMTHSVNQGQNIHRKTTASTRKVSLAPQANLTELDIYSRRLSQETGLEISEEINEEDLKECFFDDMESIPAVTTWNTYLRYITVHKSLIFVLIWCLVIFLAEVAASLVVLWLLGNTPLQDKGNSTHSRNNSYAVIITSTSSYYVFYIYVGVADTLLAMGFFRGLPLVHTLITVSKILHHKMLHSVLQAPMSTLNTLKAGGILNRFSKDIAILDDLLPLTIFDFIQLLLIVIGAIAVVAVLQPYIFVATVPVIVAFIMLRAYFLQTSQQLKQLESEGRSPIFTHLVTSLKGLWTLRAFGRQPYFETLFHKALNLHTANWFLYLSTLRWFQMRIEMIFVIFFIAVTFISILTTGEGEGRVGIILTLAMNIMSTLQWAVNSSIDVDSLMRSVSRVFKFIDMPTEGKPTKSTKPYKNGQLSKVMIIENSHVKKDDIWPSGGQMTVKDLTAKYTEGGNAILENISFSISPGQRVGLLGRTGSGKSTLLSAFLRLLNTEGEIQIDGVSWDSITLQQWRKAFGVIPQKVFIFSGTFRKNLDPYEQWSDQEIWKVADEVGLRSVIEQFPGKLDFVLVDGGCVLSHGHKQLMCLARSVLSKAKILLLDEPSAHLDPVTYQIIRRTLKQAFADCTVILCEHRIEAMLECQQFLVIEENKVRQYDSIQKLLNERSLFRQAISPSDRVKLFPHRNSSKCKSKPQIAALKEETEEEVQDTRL

Row | Structure (SMILES) | EC50 [1, 3] | Maximum % activity (with co-corrector) [1, 4] | EC50 ([2]; CSE-HRP assay) | Emax [2, 5] | Maximum % activity (with co-corrector) [1, 6] | EC50 ([1]; with 2 μM co-corrector) | Emax ([2]; normalized to positive control) | EC50 [2]
1 | N#CCC1(C(=O)NS(=O)(=O)c2cccc3ccccc23)CCc2c(Cl)cccc21 (stereo not shown) [Example III-155, 4-chloro-1-(cyanomethyl)-N-(naphthalene-1-sulfonyl)-2,3-dihydro-1H-indene-1-carboxamide] | 3 to 10 µM | ++ (≥150 and <350) | 3 to 10 µM | < 50% | – | – | – | –
2 | N#CC1(C(=O)NS(=O)(=O)c2cccc3ccccc23)CCCc2cccc(Cl)c21 (stereo not shown) [Example III-157, 8-chloro-1-cyano-N-(naphthalene-1-sulfonyl)-1,2,3,4-tetrahydronaphthalene-1-carboxamide] | 3 to 10 µM | ++ (≥150 and <350) | ≥ 10 µM | < 50% | – | – | – | –
3 | CC1(C(=O)NS(=O)(=O)c2ccccc2)CCc2c(Cl)cccc21 (stereo not shown) [II-1] | – | – | – | – | +++ (≥350) | 3 to 10 µM | 50 to 150% | 3 to 10 µM
4 | Cc1ccccc1S(=O)(=O)NC(=O)[C@@]1(C)CCc2ccc(Cl)cc21 [II-4] | – | – | – | – | ++ (≥150 and <350) | 3 to 10 µM | < 50% | 3 to 10 µM
5 | Cc1ccccc1S(=O)(=O)NC(=O)[C@]1(C)CCc2ccc(Cl)cc21 [II-5] | – | – | – | – | ++ (≥150 and <350) | < 3 µM | < 50% | 3 to 10 µM
6 | O=C(NS(=O)(=O)c1ccccc1Cl)C1CCc2c(Cl)cccc21 (stereo not shown) [II-6] | – | – | – | – | ++ (≥150 and <350) | 3 to 10 µM | 50 to 150% | 3 to 10 µM
7 | Cc1ccccc1S(=O)(=O)NC(=O)C1CCCc2ccccc21 (stereo not shown) [II-7] | – | – | – | – | ++ (≥150 and <350) | 3 to 10 µM | < 50% | 3 to 10 µM
8 | COc1cccc2c1CCCC2C(=O)NS(=O)(=O)c1ccccc1C (stereo not shown) [II-8] | – | – | – | – | ++ (≥150 and <350) | 3 to 10 µM | 50 to 150% | 3 to 10 µM
9 | COc1ccc2c(c1OC)CCCC2C(=O)NS(=O)(=O)c1ccccc1C (stereo not shown) [II-9] | – | – | – | – | ++ (≥150 and <350) | 3 to 10 µM | < 50% | ≥ 10 µM
10 | Cc1ccccc1S(=O)(=O)NC(=O)C1CCCc2cccc(Cl)c21 (stereo not shown) [II-10] | – | – | – | – | ++ (≥150 and <350) | 3 to 10 µM | 50 to 150% | 3 to 10 µM
11 | Cc1ccccc1S(=O)(=O)NC(=O)C1CCc2ccccc21 (stereo not shown) [II-11] | – | – | – | – | + (<150) | 3 to 10 µM | < 50% | ≥ 10 µM
12 | Cc1ccccc1S(=O)(=O)NC(=O)C1CCCc2cc(F)ccc21 (stereo not shown) [II-12] | – | – | – | – | ++ (≥150 and <350) | 3 to 10 µM | < 50% | 3 to 10 µM
13 | COc1cccc2c1CCC[C@H]2C(=O)NS(=O)(=O)c1ccccc1C [II-13] | – | – | – | – | +++ (≥350) | 3 to 10 µM | 50 to 150% | 3 to 10 µM
14 | Cc1ccccc1S(=O)(=O)NC(=O)[C@H]1CCCc2ccccc21 [II-14] | – | – | – | – | ++ (≥150 and <350) | 3 to 10 µM | < 50% | 3 to 10 µM
15 | COc1cc2c(cc1OC)C(C(=O)NS(=O)(=O)c1ccccc1C)CCC2 (stereo not shown) [II-15] | – | – | – | – | + (<150) | 3 to 10 µM | < 50% | ≥ 10 µM
16 | COc1cccc2c1CC(C(=O)NS(=O)(=O)c1ccccc1C)C2 (stereo not shown) [II-16] | – | – | – | – | ++ (≥150 and <350) | 3 to 10 µM | < 50% | 3 to 10 µM
17 | Cc1ccccc1S(=O)(=O)NC(=O)[C@@H]1CCCc2ccccc21 [II-17] | – | – | – | – | ++ (≥150 and <350) | 3 to 10 µM | < 50% | 3 to 10 µM
18 | COc1ccc2c(c1)[C@@](C)(C(=O)NS(=O)(=O)c1ccccc1C)CC2 [II-18] | – | – | – | – | ++ (≥150 and <350) | 3 to 10 µM | < 50% | 3 to 10 µM
19 | Cc1ccccc1S(=O)(=O)NC(=O)C1(C)CCc2cccc(Cl)c21 (stereo not shown) [II-19] | – | – | – | – | ++ (≥150 and <350) | 3 to 10 µM | 50 to 150% | 3 to 10 µM
20 | Cc1ccccc1S(=O)(=O)NC(=O)C1(C)CCc2c1ccc(F)c2F (stereo not shown) [II-20] | – | – | – | – | ++ (≥150 and <350) | 3 to 10 µM | < 50% | 3 to 10 µM
21 | Cc1ccccc1S(=O)(=O)NC(=O)C1(C)CCc2ccccc21 (stereo not shown) [II-21] | – | – | – | – | ++ (≥150 and <350) | 3 to 10 µM | < 50% | 3 to 10 µM

The next lines start with the values.

Row | EC50 [1, 3] | Maximum % activity (with co-corrector) [1, 4] | EC50 ([2]; CSE-HRP assay) | Emax [2, 5] | Maximum % activity (with co-corrector) [1, 6] | EC50 ([1]; with 2 μM co-corrector) | Emax ([2]; normalized to positive control) | EC50 [2] | Structure (SMILES)
22 | – | – | – | – | ++ (≥150 and <350) | 3 to 10 µM | 50 to 150% | 3 to 10 µM | Cc1ccc2c(c1)CCC2(C)C(=O)NS(=O)(=O)c1ccccc1C (stereo not shown) [II-22]
23 | – | – | – | – | ++ (≥150 and <350) | 3 to 10 µM | < 50% | 3 to 10 µM | CCc1ccccc1S(=O)(=O)NC(=O)C1CCc2c(OC)cccc21 (stereo not shown) [II-24]
24 | – | – | – | – | ++ (≥150 and <350) | 3 to 10 µM | 50 to 150% | 3 to 10 µM | CCc1ccccc1S(=O)(=O)NC(=O)C1CCc2c(Cl)cccc21 (stereo not shown) [II-25]
25 | – | – | – | – | ++ (≥150 and <350) | 3 to 10 µM | < 50% | ≥ 10 µM | O=C(NS(=O)(=O)c1cccc(Cl)c1)C1CCc2c(Cl)cccc21 (stereo not shown) [II-26]
26 | – | – | – | – | ++ (≥150 and <350) | 3 to 10 µM | < 50% | ≥ 10 µM | O=C(NS(=O)(=O)c1ccc(Cl)cc1)C1CCc2c(Cl)cccc21 (stereo not shown) [II-27]
27 | – | – | – | – | ++ (≥150 and <350) | 3 to 10 µM | < 50% | 3 to 10 µM | O=C(NS(=O)(=O)c1ccccc1F)C1CCc2c(Cl)cccc21 (stereo not shown) [II-28]
28 | – | – | – | – | ++ (≥150 and <350) | 3 to 10 µM | < 50% | 3 to 10 µM | COc1cccc2c1CCC2C(=O)NS(=O)(=O)c1ccccc1Cl (stereo not shown) [II-30]
29 | – | – | – | – | ++ (≥150 and <350) | 3 to 10 µM | < 50% | 3 to 10 µM | COc1cccc2c1CCC2C(=O)NS(=O)(=O)c1ccccc1[N+](=O)[O-] (stereo not shown) [II-31]
30 | – | – | – | – | ++ (≥150 and <350) | < 3 µM | < 50% | < 3 µM | CCC1(C(=O)NS(=O)(=O)c2ccccc2C)CCc2c(Cl)cccc21 (stereo not shown) [II-32]
31 | – | – | – | – | +++ (≥350) | 3 to 10 µM | 50 to 150% | 3 to 10 µM | Cc1ccccc1S(=O)(=O)NC(=O)C1CCc2c(Br)cccc21 (stereo not shown) [II-33]
32 | – | – | – | – | ++ (≥150 and <350) | 3 to 10 µM | < 50% | 3 to 10 µM | Cc1ccccc1S(=O)(=O)NC(=O)C1CCc2c(C3=CCOCC3)cccc21 (stereo not shown) [II-34]
33 | – | – | – | – | ++ (≥150 and <350) | 3 to 10 µM | 50 to 150% | 3 to 10 µM | Cc1ccccc1S(=O)(=O)NC(=O)C1CCc2c(C3CCC3)cccc21 (stereo not shown) [II-35]
34 | – | – | – | – | ++ (≥150 and <350) | 3 to 10 µM | < 50% | 3 to 10 µM | COc1cccc2c1CCC2C(=O)NS(=O)(=O)c1ccccc1C(F)(F)F (stereo not shown) [II-37]
